{
  "source": "patent US6716582B2",
  "about": "(priority 2000, dated 2004)",
  "key": {"[1]": {"test_system": "uhpT-luxCDABE gene fusion (strain DPD3228)", "experiment": "verification of uhpT-lux upregulation by limonene", "assay_type": "cell-based, E. coli", "settings": "late response, maximal at highest concentration, detected at 40% or 20% of saturation", "protocol": "E. coli strain DPD3228 is identical to lux-a.pk034.b9 the strain containing the uhpT-luxCDABE gene fusion. This strain was grown overnight at 37° C. in LB medium containing 100 μg/ml ampicillin and diluted the following day into LB medium and grown to log phase at 37° C. 20 μl aliquots of this culture were added to 80 μl of LB medium saturated with limonene, to 80 μl of a series of two fold dilutions into LB medium of LB saturated with limonene, and to 80 μl of LB medium. Light production was measured in a Luminoskan Ascent (Labsystems) microplate luminometer at 37° C. […] Similar to the initial LuxArray observations, a late response to the presence of limonene was observed. This response was maximal at the highest concentration of limonene tested, but was also detected when limonene was present at 40% or 20% of saturating amounts in LB medium."}, "[2]": {"test_system": "LuxArray 1.04 luxCDABE gene fusions", "experiment": "LuxArray 1.04 limonene stress in liquid culture", "assay_type": "cell-based, E. coli", "settings": "for upregulation of gene fusion: 80% saturated limonene", "protocol": "Microplates from −80° C. containing the LuxArray 1.04 E. coli strains were thawed and used to inoculate 100 μl LB medium supplemented with 100 μg/ml ampicillin in Costar#3595 flat bottomed 96-well microplates. Following overnight growth at 37° C., the plates were visually examined and any wells with little or no turbidity were recorded. Then these cultures were diluted by transfer of 15 μl to 135 μl LB medium in Costar #3595, flat bottom 96-well microplates and were moderately swirl shaken on an IKA Schuttler MTS 4 shaker at setting 400 for two hrs at 37° C. in a humidified box. Twenty μl of each these actively growing cultures were transferred to the corresponding well in sets of three microplates, one containing 80 μl of LB medium, another containing 80 μl of LB medium saturated with limonene at room temperature, and the third containing 40 μl of LB medium saturated with limonene and 40 μl of LB medium. An initial (zero time) reading was taken using an MLX microplate luminometer (Dynex) pre-warmed to 37° C. Then the plates were placed at 37° C. without shaking. Additional bioluminescent measurements were taken at 45, 90, and 135 minutes. To limit the number of microplates handled each day, LuxArray 1.04 microplates 1 to 5, microplates 6 to 10, microplates 11 to 15, and microplates […] were used on each of four different days.\nThe data were normalized to correct for growth inhibition caused by limonene on the basis of each individual day that data was collected. The bioluminescence (RLU) of each individual culture for each day of experimentation under each of the three conditions, were added to determine the daily array total RLU. These were used to find a daily normalization factor (DNF) as follows:\nDNF=Daily total array signal (time zero, LB control)/Daily total array signal (time x, condition y)\nEach measurement from the corresponding day, time point, and condition was multiplied by DNF to yield a normalized signal. The data from wells that were scored to have little or no growth were not used in further analysis. The normalized data were analyzed with GeneSpring (Silicon Genetics) software, which averaged the signal from each of the duplicate cultures for each reporter gene fusion.\nThus, patterns of gene expression from the 80% saturated limonene in LB medium were further examined. […] These lists were examined and gene fusions with very low normalized RLU values (<0.012 RLU) at all conditions were eliminated. […] The designation of “>2×” is given for upregulation while “*” is listed if the expression was less than 2 fold increased. At 45 minutes, the expression of fourteen gene fusions was increased; none of these was increased 3 fold or higher. At 90 minutes, 37 gene fusions were induced; these included all but one of the gene fusions observed at 45 minutes. […] These were fusions of the luxCDABE reporter to the promoter regions of uhpT (3.8×), nirB (3.7×) and narK (3.6×). At 135 minutes, 39 gene fusions were induced, which included 13 fusions not observed at 45 or 90 minutes."}},
  "data": [
    {"smiles": "C=C(C)[C@H]1CC=C(C)CC1", "note": "[limonene]", "values": [
      {"measurement": "upregulation of bioluminescence", "setting": "[1]", "value": "upregulation of bioluminescence from this strain by limonene was confirmed"},
      {"measurement": "upregulation of gene fusion", "setting": "[2]; katG-lux, 135 minutes", "value": 4.1, "unit": "×"},
      {"measurement": "upregulation of gene fusion", "setting": "[2]; narK-lux, 90 minutes", "value": 3.6, "unit": "×"},
      {"measurement": "upregulation of gene fusion", "setting": "[2]; nirB-lux, 90 minutes", "value": 3.7, "unit": "×"},
      {"measurement": "upregulation of gene fusion", "setting": "[2]; nirB-lux, 135 minutes", "value": 4.1, "unit": "×"},
      {"measurement": "upregulation of gene fusion", "setting": "[2]; uhpT-lux, 90 minutes", "value": 3.8, "unit": "×"},
      {"measurement": "upregulation of gene fusion", "setting": "[2]; uhpT-lux, 135 minutes", "value": 7.7, "unit": "×"},
      {"measurement": "upregulation of gene expression", "setting": "[2]; whole LuxArray 1.04, 40% saturated limonene in LB medium", "value": "little to no upregulation"}
    ]}
  ]
}
